Patent US4169096A, “Antibiotic compounds” (priority 1977, dated 1979)
In brackets after ≈: the same amount, converted by molar mass. Counter-ions that a name gives are not always drawn. Like-named read-outs stand apart in the source and are kept apart here.

Tests used:
B. fragilis A20926 = assay: Localized infection with B. fragilis in mice; type: in vivo; details: for mean score: control 4.2; for sum of score: control 21; for infectivity level: control 100%
[1] = system: Escherichia coli Juhl A15119; assay: MIC, serial two-fold agar dilution, aerobic bacteria; type: cell-based; details: JUHLA15119, Nutrient agar (Eiken), read-out: MIC
[2] = system: Klebsiella pneumoniae A9678; assay: as above; type: cell-based; details: Nutrient agar (Eiken), read-out: MIC
[3] = system: Serratia marcescens A20019; assay: as above; type: cell-based; details: Nutrient agar (Eiken), read-out: MIC
[4] = system: Pseudomonas aeruginosa A9843; assay: as above; type: cell-based; details: test medium not given
Proteus mirabilis A9554 = assay: as above; type: cell-based; details: Nutrient agar (Eiken)
Proteus morganii A9553 = assay: as above; type: cell-based; details: Morganella morganii, Nutrient agar (Eiken)
[5] = system: Staphylococcus aureus 209P; assay: as above; type: cell-based; details: Nutrient agar (Eiken)
[6] = system: Staphylococcus aereus Smith; assay: as above; type: cell-based
[7] = system: Staphylococcus aureus #52-34; assay: as above; type: cell-based
Sarcina lutea PCI-1001 = assay: as above; type: cell-based; details: Micrococcus luteus, PCI1001
Micrococcus flavus = assay: as above; type: cell-based; details: Nutrient agar (Eiken), read-out: MIC
[8] = system: Bacillus cereus ATCC 10702 A; assay: as above; type: cell-based; details: ATCC10702, Nutrient agar (Eiken), read-out: MIC
[9] = system: Bacillus subtilis PCI-219; assay: as above; type: cell-based; details: PCI219, Nutrient agar (Eiken), read-out: MIC
[10] = system: Streptococcus pyogenes A9604; assay: as above; type: cell-based; details: GC medium (Eiken)
[11] = system: Streptococcus pyogenes A20201; assay: as above; type: cell-based; details: GC medium (Eiken)
[12] = system: Streptococcus viridans A21354; assay: as above; type: cell-based; details: GC medium (Eiken)
[13] = system: Diplococcus pneumoniae A9585; assay: as above; type: cell-based; details: Streptococcus pneumoniae, GC medium (Eiken)
[14] = system: Neisseria meningitidis A20049; assay: as above; type: cell-based; details: GC medium (Eiken), read-out: MIC
[15] = system: Neisseria meningitidis A21496; assay: as above; type: cell-based; details: GC medium (Eiken)
[16] = system: Neisseria gonorrhoeae A15112; assay: as above; type: cell-based; details: GC medium (Eiken)
[17] = system: Neisseria gonorrhoeae A20154; assay: as above; type: cell-based; details: GC medium (Eiken)
[18] = system: Hemophilus influenzae A9832; assay: as above; type: cell-based; details: Haemophilus influenzae, GC medium (Eiken)
[19] = system: Hemophilus influenzae A20188; assay: as above; type: cell-based; details: Haemophilus influenzae, GC medium (Eiken)
[20] = system: Peptostreptococcus anaerobius B43; type: cell-based; details: GAM agar medium (Nissui)
B. fragilis A20928-1 [21] = assay: Inoculum size effect on MIC, GAM agar; type: cell-based; details: Bacteroides fragilis, A209281; inoculum size 1.2 × 10^6 cell/ml
B. fragilis A20928-1 [22] = assay: Inoculum size effect on MIC, GAM broth; type: cell-based; details: Bacteroides fragilis
C. perfringens A9635 [23] = assay: microbe, parasite or virus in culture; type: cell-based; details: Clostridium perfringens, A9635, read-out: MIC in GAM broth, inoculum size […] 10^6 cell/ml
B. fragilis A20928-1 [24] = assay: Bactericidal activity (MIC & MBC); type: cell-based; details: Bacteroides fragilis, A209281, inoculum size 2.8 × 10^6 cell/ml
C. perfringens A9635 [25] = assay: microbe, parasite or virus in culture; type: cell-based; details: Clostridium perfringens, A9635, 18 h
S. pyogenes A20201 [26] = assay: Bactericidal activity (MIC & MBC); type: cell-based; details: Streptococcus pyogenes, A20201, 18 h
C. perfringens A9635 [27] = assay: animal or person; type: in vivo, mice; details: Clostridium perfringens, A9635, in Mus musculus, 120 h, read-out: PD50
S. pyogenes A20201 [28] = assay: Systemic infection with S. pyogenes in mice; type: in vivo; details: Streptococcus pyogenes, A20201, 120 h, just before challenge, determined after 5 days, read-out: PD50
Solubility = type: physicochemical
Stability in solution = type: physicochemical
[29] = pKa' by titration in aqueous ethanol; type: physicochemical; details: 46% aqueous ethanol
aerobic organisms = assay: Antibacterial activity against aerobic bacteria (in words); type: cell-based; details: Bacillus species, streptococci, Neisseria meningtidis, N. gonorrhoeae, Hemophilus influenzae
[30] = system: aerobic and anaerobic bacteria; assay: Antibacterial activity and spectrum (in words); type: cell-based
[31] = system: two anaerobic organisms (B. fragilis and C. perfringens); type: cell-based; details: broth dilution method
[32] = system: two anaerobic and one aerobic organisms; assay: Bactericidal potential (in words); type: cell-based
[33] = system: C. perfringens or S. pyrogenes; type: in vivo, mice; details: subcutaneous and oral
[34] = system: Escherichia coli K-12 A9632; assay: MIC, serial two-fold agar dilution, aerobic bacteria; details: K12A9632

COC(=O)C1C(C)OC2(C)CC(=O)C3OC12OC(C(C)/C=C(C)/C=C/C(=O)C1=C(O)CNC1=O)C3C (stereo not shown) [Bu-2313B (Na salt)]
mean score (B. fragilis A20926; oral, 6.3 × 5 mg/kg): 3.4 | sum of score (B. fragilis A20926; oral, 6.3 × 5 mg/kg): 17 | infectivity level (B. fragilis A20926; oral, 6.3 × 5 mg/kg): 81.0% | mean score (B. fragilis A20926; oral, 25 × 5 mg/kg): 3.0 | sum of score (B. fragilis A20926; oral, 25 × 5 mg/kg): 15 | infectivity level (B. fragilis A20926; oral, 25 × 5 mg/kg): 71.4% | mean score (B. fragilis A20926; oral, 100 × 5 mg/kg): 2.4 | sum of score (B. fragilis A20926; oral, 100 × 5 mg/kg): 12 | infectivity level (B. fragilis A20926; oral, 100 × 5 mg/kg): 57.1% | mean score (B. fragilis A20926; oral, […] 5 mg/kg): 4.0 | sum of score (B. fragilis A20926; oral, […] 5 mg/kg): 20 | infectivity level (B. fragilis A20926; oral, […] 5 mg/kg): 95.2% | mean score (B. fragilis A20926; subcutaneous, 0.8 × 5 mg/kg): 4.0 | sum of score (B. fragilis A20926; subcutaneous, 0.8 × 5 mg/kg): 20 | infectivity level (B. fragilis A20926; subcutaneous, 0.8 × 5 mg/kg): 95.2% | mean score (B. fragilis A20926; subcutaneous, 3.1 × 5 mg/kg): 3.4 | sum of score (B. fragilis A20926; subcutaneous, 3.1 × 5 mg/kg): 17 | infectivity level (B. fragilis A20926; subcutaneous, 3.1 × 5 mg/kg): 81.0% | mean score (B. fragilis A20926; subcutaneous, 50 × 5 mg/kg): 2.2 | sum of score (B. fragilis A20926; subcutaneous, 50 × 5 mg/kg): 11 | infectivity level (B. fragilis A20926; subcutaneous, 50 × 5 mg/kg): 52.4% | mean score (B. fragilis A20926; subcutaneous, […] 5 mg/kg): 2.8 | sum of score (B. fragilis A20926; subcutaneous, […] 5 mg/kg): 14 | infectivity level (B. fragilis A20926; subcutaneous, […] 5 mg/kg): 66.7% | LD50 (in vivo; po, LD50, po): 280 mg/kg | LD50 (Acute toxicity; ip): 55 mg/kg | LD50 (Acute toxicity; sc): 200 mg/kg

COC(=O)C1C(C)OC2(C)CC(=O)C3OC12OC(C(C)/C=C(C)/C=C/C(=O)C1=C(O)CNC1=O)C3C (stereo not shown) [Bu-2313B]
MIC [1]: > 100 µg/mL | MIC [2]: > 100 µg/mL | MIC [3]: > 100 µg/mL | MIC [4]: > 100 µg/mL | MIC (Proteus mirabilis A9554): > 100 µg/mL | MIC (Proteus morganii A9553): > 100 µg/mL | MIC [5]: 25 µg/mL (≈ 49.6 µM) | MIC [6]: 12.5 µg/mL (≈ 24.8 µM) | MIC [7]: 12.5 µg/mL (≈ 24.8 µM) | MIC (Sarcina lutea PCI-1001): 12.5 µg/mL (≈ 24.8 µM) | MIC (Micrococcus flavus): 25 µg/mL (≈ 49.6 µM) | MIC [8]: 0.8 µg/mL (≈ 1.59 µM) | MIC [9]: 1.6 µg/mL (≈ 3.18 µM) | MIC [10]: 0.4 µg/mL (≈ 0.794 µM) | MIC [11]: 0.4 µg/mL (≈ 0.794 µM) | MIC [12]: 0.4 µg/mL (≈ 0.794 µM) | MIC [13]: 0.4 µg/mL (≈ 0.794 µM) | MIC [14]: 0.8 µg/mL (≈ 1.59 µM) | MIC [15]: 1.6 µg/mL (≈ 3.18 µM) | MIC [16]: 0.8 µg/mL (≈ 1.59 µM) | MIC [17]: 0.8 µg/mL (≈ 1.59 µM) | MIC [18]: 0.4 µg/mL (≈ 0.794 µM) | MIC [19]: 0.8 µg/mL (≈ 1.59 µM) | MIC [20]: 0.4 µg/mL (≈ 0.794 µM) | MIC (B. fragilis A20928-1 [21]): 0.05 µg/mL (≈ 0.0993 µM) | MIC (B. fragilis A20928-1 [22]; A209281, inoculum size […] 10^7 cell/ml, read-out: MIC in GAM broth): 0.4 µg/mL (≈ 0.794 µM) | MIC (B. fragilis A20928-1 [22]; A209281, read-out: MIC in GAM broth, inoculum size […] 10^6 cell/ml): 0.013 µg/mL (≈ 0.0258 µM) | MIC (C. perfringens A9635 [23]): 25 µg/mL (≈ 49.6 µM) | MIC (B. fragilis A20928-1 [24]; broth): 0.006 µg/mL (≈ 0.0119 µM) | MBC (B. fragilis A20928-1 [24]; growth of less than 100 colonies per plate, 18 hours at 37° C.): > 0.8 µg/mL | MBC (C. perfringens A9635 [25]): 12.5 µg/mL (≈ 24.8 µM) | MBC (S. pyogenes A20201 [26]): 12.5 µg/mL (≈ 24.8 µM) | ED50 (C. perfringens A9635 [27]; po): 30 mg/kg | ED50 (C. perfringens A9635 [27]; sc): 6.25 mg/kg | ED50 (S. pyogenes A20201 [28]; po, NA: no activity): 25 mg/kg | ED50 (S. pyogenes A20201 [28]; sc): 9 mg/kg | solubility (Solubility; hexane and alkaline water): slightly soluble | solubility (Solubility; most organic solvents such as lower alcohols, ethyl acetate, chloroform and benzene): readily soluble | solubility (Solubility; water): practically insoluble | stability (Stability in solution; acidic solution): stable | stability (Stability in solution; alkaline solution, N/10 NaOH, room temperature, overnight): inactivated | pKa [29]: 4.9 | susceptibility of aerobic strains (aerobic organisms): susceptible | antibacterial activity [30]: exhibit antibacterial activity against a variety of anaerobic bacteria and some aerobic bacteria | comparative activity and antibacterial spectrum ([30]; in vitro): very similar to those of tirandamycin | influence of inoculum size on MIC [31]: greatly affected by inoculum size | antibacterial action [32]: bacteriostatic rather than bactericidal | protection against systemic infections [33]: fairly good protection | LD50 (in vivo; sc, LD50, sc): 225 mg/kg | LD50 (Acute toxicity; ip, listed as Bu-2313B (free acid)): 115 mg/kg | comparative acute toxicity (Acute toxicity; sc, ip and oral LD50): significantly lower toxicity than Bu-2313A | MIC [34]: > 100 µg/mL
